According to patent publication US20240217978A1 (CHONG KUN DANG PHARMACEUTICAL CORP., priority 2021, published 2024):

These compounds were tested against human adenosine A2a receptor (Homo sapiens (Human), UniProt P29274) (assay: A2a receptor binding affinity, [3H]-NECA radioligand binding test). Details: [3H]-NECA 37 nM; membrane from HEK-293 cells transfected with human adenosine A2a receptor.
Chain of human adenosine A2a receptor (P29274 whole entry): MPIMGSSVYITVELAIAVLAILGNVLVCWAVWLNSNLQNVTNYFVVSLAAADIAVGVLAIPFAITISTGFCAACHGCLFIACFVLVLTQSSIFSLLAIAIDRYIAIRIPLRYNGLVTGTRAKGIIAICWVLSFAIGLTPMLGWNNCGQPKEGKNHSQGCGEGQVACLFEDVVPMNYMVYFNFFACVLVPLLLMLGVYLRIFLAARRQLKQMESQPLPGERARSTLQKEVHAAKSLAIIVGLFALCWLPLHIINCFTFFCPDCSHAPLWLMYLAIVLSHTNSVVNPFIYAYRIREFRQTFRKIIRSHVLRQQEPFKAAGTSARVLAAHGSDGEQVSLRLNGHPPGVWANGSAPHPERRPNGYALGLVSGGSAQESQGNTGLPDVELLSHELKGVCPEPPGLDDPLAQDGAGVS
Summary of the method: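 IC50 values (μM) come from displacement of [3H]-NECA, used at 37 nM final, on human A2a receptor membranes from transfected HEK-293 cells. Incubation lasted one hour at room temperature in Tris/MgCl2/EDTA buffer, pH 7.4; filter-bound radioactivity was counted by scintillation.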
With `Nc1nc(N[C@H](C(=O)N2CCN(c3ccc(F)cc3F)CC2)C2CCC2)nc2nc(-c3ccco3)nn12` [Example 169, (S)-2-((7-amino-2-(furan-2-yl)-[1,2,4]triazolo[1,5-a][1,3,5]triazin-5-yl)amino)-2-cyclobutyl-1-(4-(2,4-difluorophenyl)piperazin-1-yl)ethan-1-one] the IC50 was 0.1 nM. In the case of `Cc1ccc(-c2nc3nc(N4CC[C@H]4C(=O)N4CCN(CC(F)(F)C(F)F)CC4)nc(N)n3n2)o1` [Example 312, (S)-(1-(7-amino-2-(5-methylfuran-2-yl)-[1,2,4]triazolo[1,5-a][1,3,5]triazin-5-yl)azetidin-2-y1)(4-(2,2,3,3-tetrafluoropropyl)piperazin-1-yl)methanone], the IC50 is reported as 2 nM. `Nc1nc(N2CCC[C@H]2C(=O)N2CCN(CC3(C(F)(F)F)CCCCC3)CC2)nc2nc(-c3ccco3)nn12` [Example 285] showed an IC50 of 0.2 nM. `Nc1nc(N2CCC[C@H]2C(=O)N2CCN(c3ncccn3)CC2)nc2nc(-c3ccco3)nn12` [Example 127, (S)-(1-(7-amino-2-(furan-2-yl)-[1,2,4]triazolo[1,5-a][1,3,5]triazin-5-yl)pyrrolidin-2-yl)(4-(pyrimidin-2-yl)piperazin-1-yl)methanone] gave an IC50 of 3 nM. `COc1ccccc1N1CCN(C(=O)[C@@H]2CCCN2c2nc(N)n3nc(-c4ccco4)nc3n2)CC1` [Example 122, (S)-(1-(7-amino-2-(furan-2-yl)-[1,2,4]triazolo[1,5-a][1,3,5]triazin-5-yl)pyrrolidin-2-yl)(4-(2-methoxyphenyl)piperazin-1-yl)methanone] showed an IC50 of 19 nM. `Nc1nc(N2CCC[C@H]2C(=O)N2CCN(C3CCCCC3)CC23CC3)nc2nc(-c3ccco3)nn12` [Example 344, (S)-(1-(7-amino-2-(furan-2-yl)-[1,2,4]triazolo[1,5-a][1,3,5]triazin-5-yl)pyrrolidin-2-yl)(7-cyclohexyl-4,7-diazaspiro[2.5]octan-4-yl)methanone] showed an IC50 of 16 nM. Compound `Nc1nc(N2CCC[C@H]2C(=O)N2CCN(C(=O)C3CCC(O)CC3)CC2)nc2nc(-c3ccco3)nn12` (stereo partly drawn) [Example 230] has an IC50 of 6 nM. In the case of `Nc1nc(N2CCC[C@H]2C(=O)N2CCN(Cc3ccc(F)cc3)CC2)nc2nc(-c3ccco3)nn12` [Example 45, (S)-(1-(7-amino-2-(furan-2-yl)-[1,2,4]triazolo[1,5-a][1,3,5]triazin-5-yl)pyrrolidin-2-yl)(4-(4-fluorobenzyl)piperazin-1-yl)methanone], the IC50 is reported as 19 nM. `COC[C@H](Nc1nc(N)n2nc(-c3ccco3)nc2n1)C(=O)N1CCN(c2nccs2)CC1` [Example 305, (S)-2-((7-amino-2-(furan-2-yl)-[1,2,4]triazolo[1,5-a][1,3,5]triazin-5-yl)amino)-3-methoxy-1-(4-(thiazol-2-yl)piperazin-1-yl)propan-1-one] showed an IC50 of 16 nM. Compound `Nc1nc(N2CCC[C@H]2C(=O)N2CC3(CCN(C(=O)c4ccccc4)CC3)C2)nc2nc(-c3ccco3)nn12` [Example 160, (2-((7-amino-2-(furan-2-yl)-[1,2,4]triazolo[1,5-a][1,3,5]triazin-5-yl)-L-prolyl)-2,7-diazaspiro[3.5]nonan-7-yl)(phenyl)methanone] has an IC50 of 4 nM. With `Nc1nc(N2CCC[C@@H]2C(=O)N2CCN(Cc3ccc(F)cc3F)CC2)nc2nc(-c3ccco3)nn12` [Example 96, (R)-(1-(7-amino-2-(furan-2-yl)-[1,2,4]triazolo[1,5-a][1,3,5]triazin-5-yl)pyrrolidin-2-yl)(4-(2,4-difluorobenzyl)piperazin-1-yl)methanone] the IC50 was 1630 nM. For `Nc1nc(N2CCC[C@H]2C(=O)N2CCN(CC(F)F)CC2)nc2nc(-c3ccco3)nn12` [Example 223, (S)-(1-(7-amino-2-(furan-2-yl)-[1,2,4]triazolo[1,5-a][1,3,5]triazin-5-yl)pyrrolidin-2-yl)(4-(2,2-difluoroethyl)piperazin-1-yl)methanone], the IC50 was 7 nM. `Nc1nc(N2CCC[C@H]2C(=O)N2CCN(C(=O)c3ccccc3)CC2)nc2nc(-c3nccs3)nn12` [Example 192] showed an IC50 of 17 nM. With `Nc1nc(N[C@H](C(=O)N2CCN(c3ncccn3)CC2)C2CCOCC2)nc2nc(-c3ccco3)nn12` [Example 241, (S)-2-((7-amino-2-(furan-2-yl)-[1,2,4]triazolo[1,5-a][1,3,5]triazin-5-yl)amino)-1-(4-(pyrimidin-2-yl)piperazin-1-yl)-2-(tetrahydro-2H-pyran-4-yl)ethan-1-one] the IC50 was 1 nM. `C[C@H](Nc1nc(N)n2nc(-c3ccco3)nc2n1)C(=O)N1CC2(CCN(CC(C)(F)F)CC2)C1` [Example 366, (S)-2-((7-amino-2-(furan-2-yl)-[1,2,4]triazolo[1,5-a][1,3,5]triazin-5-yl)amino)-1-(7-(2,2-difluoropropyl)-2,7-diazaspiro[3-5]nonan-2-yl)propan-1-one] was tested, and the IC50 was 8 nM. `Cc1ccc(-c2nc3nc(N4CC[C@H]4C(=O)N4CCN(Cc5ccc(F)cc5F)CC4)nc(N)n3n2)o1` [Example 208, (S)-(1-(7-amino-2-(5-methylfuran-2-yl)-[1,2,4]triazolo[1,5-a][1,3,5]triazin-5-yl)azetidin-2-yl)(4-(2,4-difluorobenzyl)piperazin-1-yl)methanone] was tested, and the IC50 was 3 nM. In the case of `COCCN1CCC(C2CCN(C(=O)[C@@H]3CCN3c3cc4nc(-c5ccco5)nn4c(N)n3)CC2)CC1` [Example 380, (S)-(1-(5-amino-2-(furan-2-yl)-[1,2,4]triazolo[1,5-c]pyrimidin-7-yl)azetidin-2-yl)(1′-(2-methoxyethyl)-[4,4′-bipiperidin]-1-yl)methanone], the IC50 is reported as 5 nM. `COc1ccc(NC(=O)N2CCN(C(=O)[C@@H]3CCCN3c3nc(N)n4nc(-c5ccco5)nc4n3)CC2)cc1` [Example 62, 4-((7-amino-2-(furan-2-yl)-[1,2,4]triazolo[1,5-a][1,3,5]triazin-5-yl)-L-prolyl)-N-(4-methoxyphenyl)piperazin-1-carboxamide] showed an IC50 of 6 nM. Compound `Nc1nc(N2CCC[C@H]2C(=O)N2CCN(c3ccccc3F)CC2)nc2nc(-c3ccco3)nn12` [Example 120, (S)-(1-(7-amino-2-(furan-2-yl)-[1,2,4]triazolo[1,5-a][1,3,5]triazin-5-yl)pyrrolidin-2-yl)(4-(2-fluorophenyl)piperazin-1-yl)methanone] has an IC50 of 6 nM. `CCCCN1CCC(C2CCN(C(=O)[C@@H]3CCN3c3cc4nc(-c5ccco5)nn4c(N)n3)CC2)CC1` [Example 383, (S)-(1-(5-amino-2-(furan-2-yl)-[1,2,4]triazolo[1,5-c]pyrimidin-7-yl)azetidin-2-yl)(1′-butyl-[4,4′-bipiperidin]-1-yl)methanone] gave an IC50 of 2 nM. `Nc1nc(N2CC[C@H]2C(=O)N2CCN(C(=O)Nc3ccccc3)CC2)nc2nc(-c3ccco3)nn12` [Example 110, (S)-4-(1-(7-amino-2-(furan-2-yl)-[1,2,4]triazolo[1,5-a][1,3,5]triazine-5-yl)azetidin-2-carbonyl)-N-phenylpiperazin-1-carboxamide] gave an IC50 of 12 nM. With `Cc1ccc(-c2nc3nc(N4CC[C@H]4C(=O)N4CCN(C(=O)c5ccccc5)CC4)nc(N)n3n2)o1` [Example 207, (S)-(1-(7-amino-2-(5-methylfuran-2-yl)-[1,2,4]triazolo[1,5-a][1,3,5]triazin-5-yl)azetidin-2-yl)(4-benzoylpiperazin-1-yl)methanone] the IC50 was 11 nM. Compound `COCCN1CCN(C(=O)[C@@H](Nc2nc(N)n3nc(-c4ccco4)nc3n2)C2CCCCC2)CC1` [Example 188, (S)-2-((7-amino-2-(furan-2-yl)-[1,2,4]triazolo[1,5-a][1,3,5]triazin-5-yl)amino)-2-cyclohexyl-1-(4-(2-methoxyethyl)piperazin-1-yl)ethan-1-one] has an IC50 of 10 nM. `Nc1nc(N2CC[C@H]2C(=O)N2CCN(C(=O)c3ccccc3)CC2)nc2nc(-c3ccco3)nn12` [Example 109, (S)-(1-(7-amino-2-(furan-2-yl)-[1,2,4]triazolo[1,5-a][1,3,5]triazin-5-yl)azetidin-2-yl)(4-benzoylpiperazin-1-yl)methanone] gave an IC50 of 13 nM. `COCCOCCN1CCN(C(=O)[C@@H]2CCCN2c2nc(N)n3nc(-c4ccco4)nc3n2)CC1` [Example 141, (S)-(1-(7-amino-2-(furan-2-yl)-[1,2,4]triazolo[1,5-a][1,3,5]triazin-5-yl)pyrrolidin-2-yl)(4-(2-(2-methoxyethoxy)ethyl)piperazin-1-yl)methanone] gave an IC50 of 15 nM. In the case of `C[C@H](Nc1nc(N)n2nc(-c3ccco3)nc2n1)C(=O)N1CCN(CC(F)(F)C(F)(F)C(F)(F)F)CC1` [Example 320, (S)-2-((7-amino-2-(furan-2-yl)-[1,2,4]triazolo[1,5-a][1,3,5]triazin-5-yl)amino)-1-(4-(2,2,3,3,4,4,4-heptafluorobutyl)piperazin-1-yl)propan-1-one], the IC50 is reported as 2 nM. `CC(F)(F)CN1CCN(C(=O)[C@@H]2CCCN2c2cc3nc(-c4ccco4)nn3c(N)n2)CC1` [Example 294, (S)-(1-(5-amino-2-(furan-2-yl)-[1,2,4]triazolo[1,5-c]pyrimidin-7-yl)pyrrolidin-2-yl)(4-(2,2-difluoropropyl)piperazin-1-yl)methanone] was tested, and the IC50 was 4 nM. `CC(C)(F)CN1CCC(C2CCN(C(=O)[C@@H]3CCN3c3nc(N)n4nc(-c5ccco5)nc4n3)CC2)CC1` [Example 322, (S)-(1-(7-amino-2-(furan-2-yl)-[1,2,4]triazolo[1,5-a][1,3,5]triazin-5-yl)azetidin-2-yl)(1′-(2-fluoro-2-methylpropyl)-[4,4′-bipiperidin]-1-yl) methanone] showed an IC50 of 6 nM. With `CCCC[C@H](Nc1nc(N)n2nc(-c3ccco3)nc2n1)C(=O)N1CCN(CC(F)(F)F)CC1` [Example 213, (S)-2-((7-amino-2-(furan-2-yl)-[1,2,4]triazolo[1,5-a][1,3,5]triazin-5-yl)amino)-1-(4-(2,2,2-trifluoroethyl)piperazin-1-yl)hexan-1-one] the IC50 was 7 nM. `CC(C)C[C@H](Nc1nc(N)n2nc(-c3ccco3)nc2n1)C(=O)N1CCN(c2ccc(F)cc2F)CC1` [Example 167, (S)-2-((7-amino-2-(furan-2-yl)-[1,2,4]triazolo[1,5-a][1,3,5]triazin-5-yl)amino)-1-(4-(2,4-difluorophenyl)piperazin-1-yl)-4-methylpentan-1-one] showed an IC50 of 0.2 nM.
